Measured values from PMC6272674, “Selected Compounds Structurally Related to Acyclic Sesquiterpenoids and Their Antibacterial and Cytotoxic Activity” (Molecules, 2015).
≈ marks a conversion by molar mass, not a printed value.

Assays:
[1] = system: Escherichia coli ATCC 25922; parameters: method as in doi:10.1002/ffj.3238; conditions: data presented by the authors before; cited from earlier work
MTT viability, HFIG = format: cell-based, human; conditions: human, HFIG (HFIB-G) gingival fibroblasts, 1000 µM (IC50 exceeded 1000 µM), read-out: viability ± standard deviation at 1000 µM
Protocol: (§1) Cell lines and in vitro culture conditions: The human promyelocytic leukaemia cell line HL-60 was obtained from the Centre of Molecular and Macromolecular Biology in Łódź, Poland and was cultured in RPMI 1640 medium with 20% heat-inactivated fetal bovine serum (FBS). To reduce spontaneous differentiation, the cells were never allowed to exceed a concentration of 1.0 × 10^6 cells/mL. The human keratinocyte cell line HaCaT was obtained from Cell Lines Service, Germany (CLS) and cultured in DMEM medium with 10% FBS. Human colorectal adenocarcinoma HT29 and normal epithelial IEC-6 cell lines (from ATCC) were cultured in DMEM medium with 10% FBS. The human skin melanoma cell line MEWO (from CLS) was cultured in DMEM:F12 supplemented with 2 mM L-glutamine and 10% FBS. Human fibroblasts from gingiva isolated from original tissue, HFIB-G, (from Provitro) were cultured in Quantum 333 (from Immunique). The media were supplemented with 100 U/mL penicillin and 100 µg/mL streptomycin; all media components were obtained from Life Technologies. The adherent cell lines used in the studies were seeded on microplates before they exceeded 80% of confluence. Cells were cultured at 37 °C in 5% CO2 air atmosphere/95% air atmosphere.
(§2) Cytotoxic activity: The cells (the density for HL-60 was 0.5 × 10^4 cells/100 µL, otherwise it was 1 × 10^4 cells/100 µL) were plated into each well of 96-well microtiter plates and, after their attachment to the plate surface, treated with 10 µL of the indicated concentrations of compounds for 24 h. Viability was determined by MTT assay following the treatment. MTT (3-[4.5-dimethylthiazol-2-yl]-2.5-diphenyltetrazolium bromide; Sigma, St. Louis, MO, USA) solution was added to each well and incubated for another 4 h. The resulting MTT-formazan product was dissolved by the addition of lysis buffer (20% SDS and 50% DMF). The amount of formazan was determined by measuring absorbance at 570 nm with a Synergy 2 microplate reader (BioTek, Winooski, VT, USA) operated by the Gen5 program. The experiments were conducted three times with five replications. The results are expressed as an optical density ratio of the treatment to control. All data are presented as means ± SD.

MTT viability, HaCaT = format: cell-based, human; conditions: human, HaCaT keratinocytes, 1000 µM (IC50 exceeded 1000 µM), read-out: viability ± standard deviation at 1000 µM
Protocol: as §1, §2

MTT viability, HT29 = format: cell-based, human; conditions: human, HT29 colorectal adenocarcinoma cells, 1000 µM (IC50 exceeded 1000 µM), read-out: viability ± standard deviation at 1000 µM
Protocol: as §1, §2

MTT viability, IEC6 = format: cell-based; conditions: rat, IEC-6 small intestine epithelial cells, 1000 µM (IC50 exceeded 1000 µM), read-out: viability ± standard deviation at 1000 µM
Protocol: as §1, §2

MTT viability, MEWO = format: cell-based, human; conditions: human, MEWO malignant melanoma cells, 1000 µM (IC50 exceeded 1000 µM), read-out: viability ± standard deviation at 1000 µM
Protocol: as §1, §2

[2] = system: Staphylococcus aureus ATCC 43300; parameters: method as in doi:10.1002/ffj.3238; conditions: data presented by the authors before; cited from earlier work
[3] = system: Acinetobacter baumannii ATCC 19606; parameters: method as in doi:10.1002/ffj.3238; conditions: data presented by the authors before; cited from earlier work
[4] = system: Enterococcus faecalis ATCC 51299; parameters: method as in doi:10.1002/ffj.3238; conditions: data presented by the authors before; cited from earlier work
[5] = system: Enterococcus faecium ATCC 35667; parameters: method as in doi:10.1002/ffj.3238; conditions: data presented by the authors before; cited from earlier work
[6] = system: Klebsiella pneumoniae ATCC 700603; parameters: method as in doi:10.1002/ffj.3238; conditions: data presented by the authors before; cited from earlier work
[7] = system: Promyelocytic Leukaemia HL-60; assay: MTT viability, HL-60; format: cell-based, human; conditions: Homo sapiens, HL-60, 24 h, HL-60, MTT, range 10–1000 µM, read-out: half maximal inhibitory concentration (IC50), interpolated
Protocol: as §1, §2

Fibroblasts HFIG = assay: MTT viability, HFIG; format: cell-based, human; conditions: Homo sapiens, Fibroblast, 24 h, range 10–1000 µM, read-out: half maximal inhibitory concentration (IC50), interpolated
Protocol: as §1, §2

[8] = system: Klebsiella pneumoniae ATCC 700603; assay: Micro-dilution broth MIC, Klebsiella pneumoniae; format: cell-based; conditions: ATCC700603, 24 h, 37 °C, read-out: Minimum Inhibitory Concentrations MIC
Protocol: (§3) The standard strains, Gram-positive: Staphylococcus aureus ATCC […], Enterococcus faecalis Van B ATCC 51299 and Enterococcus faecium VA sensitive ATCC 35667, and Gram-negative: Escherichia coli ATCC 25922, Klebsiella pneumoniae ATCC 700603 and Acinetobacter baumannii ATCC 19606, came from a collection of the Environmental Biology Department, Medical University of Łódź. The standard strains were cultivated in Columbia Agar Medium and incubated at 37 °C for 24 h in aerobic conditions.
(§4) The antibacterial activity of the racemates and E/Z-mixtures was investigated using the micro‑dilution broth method. The compounds were diluted in ethanol. This stock solution was mixed with 100 µL of Mueller-Hinton broth to obtain concentrations from 10 µg/mL to 80 µg/mL. The mixtures were then transferred to 96-well microtiter plates. The microbial suspension was standardised to a cell density of 1.5 × 10^8 CFU, which was equal to an optical density of 0.5 on the Mc Farland scale by a bio-Merieux densitometer; one well was filled with broth only to act as a control for strain growth.

[9] = system: Acinetobacter baumannii ATCC 19606; assay: Micro-dilution broth MIC, Acinetobacter baumannii; format: cell-based; conditions: ATCC19606, 24 h, 37 °C, read-out: Minimum Inhibitory Concentrations MIC
Protocol: as §3, §4

Keratinocytes HaCaT = assay: MTT viability, HaCaT; format: cell-based, human; conditions: Homo sapiens, 24 h, range 10–1000 µM, read-out: half maximal inhibitory concentration (IC50), interpolated
Protocol: as §1, §2

[10] = system: Enterococcus faecalis ATCC 51299; assay: Micro-dilution broth MIC, Enterococcus faecalis; format: cell-based; conditions: ATCC51299, 24 h, 37 °C, read-out: Minimum Inhibitory Concentrations MIC
Protocol: as §3, §4

[11] = system: Escherichia coli ATCC 25922; assay: Micro-dilution broth MIC, Escherichia coli; format: cell-based; conditions: ATCC25922, 24 h, 37 °C, read-out: Minimum Inhibitory Concentrations MIC
Protocol: as §3, §4

[12] = system: Enterococcus faecium ATCC 35667; assay: Micro-dilution broth MIC, Enterococcus faecium; format: cell-based; conditions: ATCC35667, 24 h, 37 °C, read-out: Minimum Inhibitory Concentrations MIC
Protocol: as §3, §4

Malignant Melanoma MEWO = assay: MTT viability, MEWO; format: cell-based, human; conditions: Homo sapiens, 24 h, range 10–1000 µM, read-out: half maximal inhibitory concentration (IC50), interpolated
Protocol: as §1, §2

[13] = system: Staphylococcus aureus ATCC 43300; assay: Micro-dilution broth MIC, Staphylococcus aureus; format: cell-based; conditions: ATCC43300, 24 h, 37 °C, read-out: Minimum Inhibitory Concentrations MIC
Protocol: as §3, §4

Row | Compound | viability at 24 h, 1000 µM (MTT viability, HT29) [%] | viability at 24 h, 1000 µM (MTT viability, IEC6) [%] | IC50 [7] [µM] | IC50 (Fibroblasts HFIG) [µM] | MIC [8] [µg/mL] | MIC [9] [µg/mL] | IC50 (Keratinocytes HaCaT) [µM] | MIC [10] [µg/mL] | MIC [11] [µg/mL] | MIC [12] [µg/mL] | IC50 (Malignant Melanoma MEWO) [µM] | MIC [13] [µg/mL] | further results
1 | C=CC(C)(O)CCC=C(C)C(C)CCC=C(C)C (stereo not drawn) [Compound 12] | 97 | 73 | 500 |  |  |  |  |  |  |  |  |  | Minimum Inhibitory Concentrations MIC [1]: 40 µg/mL; viability at 24 h, 1000 µM (MTT viability, HFIG): 110%; viability at 24 h, 1000 µM (MTT viability, HaCaT): 101%; viability at 24 h, 1000 µM (MTT viability, MEWO): 97%; Minimum Inhibitory Concentrations MIC [2]: 48 µg/mL; Minimum Inhibitory Concentrations MIC [3]: 26 µg/mL; Minimum Inhibitory Concentrations MIC [4]: 46 µg/mL; Minimum Inhibitory Concentrations MIC [5]: 42 µg/mL; Minimum Inhibitory Concentrations MIC [6]: 28 µg/mL
2 | C=CC(C)(O)CCC=CC(C)CCC=C(C)C (stereo not drawn) [Compound 13] | 99 | 96 | 400 |  |  |  |  |  |  |  |  |  | Minimum Inhibitory Concentrations MIC [1]: 40 µg/mL; viability at 24 h, 1000 µM (MTT viability, HFIG): 87%; viability at 24 h, 1000 µM (MTT viability, HaCaT): 87%; viability at 24 h, 1000 µM (MTT viability, MEWO): 83%; Minimum Inhibitory Concentrations MIC [2]: 46 µg/mL; Minimum Inhibitory Concentrations MIC [3]: 22 µg/mL; Minimum Inhibitory Concentrations MIC [4]: 42 µg/mL; Minimum Inhibitory Concentrations MIC [5]: 38 µg/mL; Minimum Inhibitory Concentrations MIC [6]: 20 µg/mL
3 | C=CC(C)(O)CCC=C(C)C(C)CCCC(C)C (stereo not drawn) [Compound 14] | 112 | 65 | 750 |  |  |  |  |  |  |  |  |  | Minimum Inhibitory Concentrations MIC [1]: 38 µg/mL; viability at 24 h, 1000 µM (MTT viability, HFIG): 99%; viability at 24 h, 1000 µM (MTT viability, HaCaT): 106%; viability at 24 h, 1000 µM (MTT viability, MEWO): 99%; Minimum Inhibitory Concentrations MIC [2]: 48 µg/mL; Minimum Inhibitory Concentrations MIC [3]: 28 µg/mL; Minimum Inhibitory Concentrations MIC [4]: 38 µg/mL; Minimum Inhibitory Concentrations MIC [5]: 36 µg/mL; Minimum Inhibitory Concentrations MIC [6]: 18 µg/mL
4 | CC(C)=CCCC(C)C(C)=CCCC(C)=CCO (stereo not drawn) [Compound 24, 3,7,8,12-Tetramethyltrideca-2,6,11-trien-1-ol] | 78 | 85 | 100 | 390 | 44 (≈ 176 µM) | 40 (≈ 160 µM) | 686 | 18 (≈ 71.9 µM) | 52 (≈ 208 µM) | 32 (≈ 128 µM) | 512 | 22 (≈ 87.9 µM) | 
5 | CC(C)=CCCC(C)/C=C/CCC(C)=CCO (stereo not drawn) [Compound 25, (6E)-3,8,12-Trimethyltrideca-2,6,11-trien-1-ol] | 108 | 82 | 167 | 454 | 48 (≈ 203 µM) | 44 (≈ 186 µM) | 667 | 32 (≈ 135 µM) | 50 (≈ 212 µM) | 34 (≈ 144 µM) | 500 | 28 (≈ 118 µM) | 
6 | CC(=CCO)CCC=C(C)C(C)CCCC(C)C (stereo not drawn) [Compound 26, 3,7,8,12-Tetramethyltrideca-2,6-dien-1-ol] | 96 | 76 | 145 | 531 | 42 (≈ 166 µM) | 38 (≈ 151 µM) | 620 | 30 (≈ 119 µM) | 48 (≈ 190 µM) | 36 (≈ 143 µM) | 495 | 32 (≈ 127 µM) | 
7 | CC(C)=CCCC(C)CC(C)=CCO (stereo not drawn) [Compound 27, 3,5,9-Trimethyldeca-2,8-dien-1-ol] | 106 | 93 | 143 | 489 | 18 (≈ 91.7 µM) | 34 (≈ 173 µM) | 687 | 26 (≈ 132 µM) | 36 (≈ 183 µM) | 18 (≈ 91.7 µM) | 456 | 28 (≈ 143 µM) | 
8 | CC(C)=CCCC(C)CCC(C)=CCO (stereo not drawn) [Compound 28, 3,6,10-Trimethylundeca-2,9-dien-1-ol] | 93 | 101 | 198 | 687 | 16 (≈ 76.1 µM) | 18 (≈ 85.6 µM) | 698 | 18 (≈ 85.6 µM) | 28 (≈ 133 µM) | 16 (≈ 76.1 µM) | 512 | 26 (≈ 124 µM) | 
9 | CC(C)=CCCC(C)CC(C)C(C)=CCO (stereo not drawn) [Compound 29, 3,4,6,10-Tetramethylundeca-2,9-dien-1-ol] | 82 | 103 | 252 | 756 | 36 (≈ 160 µM) | 32 (≈ 143 µM) | 946 | 22 (≈ 98 µM) | 38 (≈ 169 µM) | 18 (≈ 80.2 µM) | 587 | 28 (≈ 125 µM) | 
10 | CC(=O)OCC=C(C)CCC=C(C)C(C)CCCC(C)C (stereo not drawn) [Compound 32, 3,7,8,12-Tetramethyltrideca-2,6-dien-1-yl acetate] | 103 | 92 | 278 | 980 | 18 | 22 | 950 | 22 | 28 | 20 | 800 | 28 | 
11 | CC(C)=CCCC(C)=CCCC(C)=CC=O [Farnesal (3), farnesal, reference compound] | 110 | 85 | 363 | 650 | 44 (≈ 200 µM) | 36 (≈ 163 µM) | 702 | 22 (≈ 99.8 µM) | 46 (≈ 209 µM) | 36 (≈ 163 µM) | 467 | 24 (≈ 109 µM) | 
